Assay [1] has as its target Dual specificity protein phosphatase 3 (Homo sapiens, UniProt P51452). The assay is described as follows: VHR phosphatase inhibition, dose response, selectivity assay for STEP inhibitor project, biochemical (AID 602374). Type of assay: functional. Conditions: read-out: IC50_Mean.
Assay [2] addresses T1, Tyrosine-protein phosphatase non-receptor type 11 (Homo sapiens, UniProt Q06124).
T1 sequence (Q06124 whole entry): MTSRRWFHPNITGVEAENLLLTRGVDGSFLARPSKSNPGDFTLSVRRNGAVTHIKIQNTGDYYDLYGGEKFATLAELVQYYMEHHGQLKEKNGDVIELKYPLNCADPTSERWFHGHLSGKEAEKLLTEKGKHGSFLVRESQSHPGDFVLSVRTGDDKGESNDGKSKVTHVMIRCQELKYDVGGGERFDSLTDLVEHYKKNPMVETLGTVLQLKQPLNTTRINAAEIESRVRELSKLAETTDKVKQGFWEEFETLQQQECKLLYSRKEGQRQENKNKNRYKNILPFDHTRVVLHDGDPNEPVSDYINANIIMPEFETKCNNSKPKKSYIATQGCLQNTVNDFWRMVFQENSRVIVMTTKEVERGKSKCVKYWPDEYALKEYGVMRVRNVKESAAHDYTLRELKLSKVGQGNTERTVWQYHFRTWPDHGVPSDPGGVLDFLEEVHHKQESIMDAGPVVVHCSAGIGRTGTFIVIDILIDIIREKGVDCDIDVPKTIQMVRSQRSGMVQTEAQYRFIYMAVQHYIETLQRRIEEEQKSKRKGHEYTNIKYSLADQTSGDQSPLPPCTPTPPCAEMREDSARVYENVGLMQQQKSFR
As to the kind of experiment: SHP2 phosphatase inhibition, dose response, selectivity assay for STEP inhibitor project, biochemical (AID 602367). It counts as functional. The following applies: read-out: IC50_Mean.

The target of assay [3] is T2, Carboxy-terminal domain RNA polymerase II polypeptide A small phosphatase 1 (Homo sapiens, UniProt Q9GZU7).
T2 sequence (Q9GZU7 whole entry): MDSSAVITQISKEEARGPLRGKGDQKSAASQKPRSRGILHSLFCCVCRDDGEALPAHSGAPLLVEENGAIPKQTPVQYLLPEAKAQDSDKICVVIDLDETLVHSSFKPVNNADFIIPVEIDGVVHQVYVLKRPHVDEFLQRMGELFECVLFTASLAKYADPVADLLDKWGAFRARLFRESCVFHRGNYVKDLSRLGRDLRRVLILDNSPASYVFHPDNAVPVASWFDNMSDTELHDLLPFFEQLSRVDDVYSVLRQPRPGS
The assay is described as follows: inhibitors of CTDSP1, concentration-response testing, biochemical assay, absorbance-based, actives from ultra-high-throughput screening (AID 540297). Type of assay: functional.

Assay [4] addresses T3, Tyrosine-protein phosphatase non-receptor type 22 (Homo sapiens, UniProt Q9Y2R2).
T3 sequence (Q9Y2R2 whole entry): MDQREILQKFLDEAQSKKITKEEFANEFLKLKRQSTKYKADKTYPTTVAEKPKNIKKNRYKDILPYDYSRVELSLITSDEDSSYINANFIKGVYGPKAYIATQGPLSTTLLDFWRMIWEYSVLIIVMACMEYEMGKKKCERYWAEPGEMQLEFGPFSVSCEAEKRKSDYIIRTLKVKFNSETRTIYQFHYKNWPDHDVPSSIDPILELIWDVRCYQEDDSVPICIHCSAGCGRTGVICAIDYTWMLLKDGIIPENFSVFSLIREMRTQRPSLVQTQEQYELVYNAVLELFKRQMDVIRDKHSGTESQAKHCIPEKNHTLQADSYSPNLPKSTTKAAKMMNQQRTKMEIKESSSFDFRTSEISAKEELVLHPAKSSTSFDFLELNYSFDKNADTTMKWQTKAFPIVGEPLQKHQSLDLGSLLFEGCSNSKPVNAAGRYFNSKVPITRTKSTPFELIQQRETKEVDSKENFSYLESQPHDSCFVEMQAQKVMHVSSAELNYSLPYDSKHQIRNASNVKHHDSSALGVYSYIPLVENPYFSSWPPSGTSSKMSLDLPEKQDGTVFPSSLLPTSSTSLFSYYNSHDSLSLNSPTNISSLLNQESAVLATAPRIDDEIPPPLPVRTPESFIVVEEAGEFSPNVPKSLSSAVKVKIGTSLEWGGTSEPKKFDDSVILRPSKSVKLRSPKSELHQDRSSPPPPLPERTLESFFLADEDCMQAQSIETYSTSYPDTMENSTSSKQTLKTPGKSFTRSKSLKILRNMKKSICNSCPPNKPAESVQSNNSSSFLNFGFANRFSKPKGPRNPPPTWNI
As to the kind of experiment: PTPN22 phosphatase inhibition, dose response, selectivity assay for STEP inhibitor project, biochemical (AID 624241). It counts as functional.

Assay [5] addresses T4, Tyrosine-protein phosphatase non-receptor type 5 (Homo sapiens, UniProt P54829).
T4 sequence (P54829 whole entry): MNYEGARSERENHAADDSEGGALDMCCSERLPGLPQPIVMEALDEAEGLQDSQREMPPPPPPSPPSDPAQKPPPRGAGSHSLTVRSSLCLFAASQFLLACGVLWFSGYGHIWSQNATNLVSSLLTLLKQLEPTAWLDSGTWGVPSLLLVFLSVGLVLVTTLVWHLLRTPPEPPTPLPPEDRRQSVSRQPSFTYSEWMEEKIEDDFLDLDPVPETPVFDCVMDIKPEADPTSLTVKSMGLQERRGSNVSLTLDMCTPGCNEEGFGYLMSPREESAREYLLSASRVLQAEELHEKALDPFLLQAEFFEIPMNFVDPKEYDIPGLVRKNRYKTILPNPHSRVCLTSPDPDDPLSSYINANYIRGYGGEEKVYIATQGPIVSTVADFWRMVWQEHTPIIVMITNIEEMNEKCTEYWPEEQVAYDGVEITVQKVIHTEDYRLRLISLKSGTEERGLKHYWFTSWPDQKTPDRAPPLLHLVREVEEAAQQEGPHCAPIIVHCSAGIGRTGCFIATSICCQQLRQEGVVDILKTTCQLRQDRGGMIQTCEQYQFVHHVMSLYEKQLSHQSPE
The assay is described as follows: STEP phosphatase inhibitors, confirmation, biochemical, fluorescence intensity, uHTS hits (AID 602372). Type of assay: functional. Conditions: read-out: IC50_Mean.

Assay [6] concerns the target T5, Protein disulfide-isomerase (Homo sapiens, UniProt P07237). The assay is described as follows: PDI inhibitors, insulin aggregation turbidity, dose response, biochemical, absorbance, cherry-picked samples (AID 602350). Type of assay: functional.
Assay [7] has as its target T6, Histone-lysine N-methyltransferase NSD2 (Homo sapiens, UniProt O96028).
T6 sequence (O96028 whole entry): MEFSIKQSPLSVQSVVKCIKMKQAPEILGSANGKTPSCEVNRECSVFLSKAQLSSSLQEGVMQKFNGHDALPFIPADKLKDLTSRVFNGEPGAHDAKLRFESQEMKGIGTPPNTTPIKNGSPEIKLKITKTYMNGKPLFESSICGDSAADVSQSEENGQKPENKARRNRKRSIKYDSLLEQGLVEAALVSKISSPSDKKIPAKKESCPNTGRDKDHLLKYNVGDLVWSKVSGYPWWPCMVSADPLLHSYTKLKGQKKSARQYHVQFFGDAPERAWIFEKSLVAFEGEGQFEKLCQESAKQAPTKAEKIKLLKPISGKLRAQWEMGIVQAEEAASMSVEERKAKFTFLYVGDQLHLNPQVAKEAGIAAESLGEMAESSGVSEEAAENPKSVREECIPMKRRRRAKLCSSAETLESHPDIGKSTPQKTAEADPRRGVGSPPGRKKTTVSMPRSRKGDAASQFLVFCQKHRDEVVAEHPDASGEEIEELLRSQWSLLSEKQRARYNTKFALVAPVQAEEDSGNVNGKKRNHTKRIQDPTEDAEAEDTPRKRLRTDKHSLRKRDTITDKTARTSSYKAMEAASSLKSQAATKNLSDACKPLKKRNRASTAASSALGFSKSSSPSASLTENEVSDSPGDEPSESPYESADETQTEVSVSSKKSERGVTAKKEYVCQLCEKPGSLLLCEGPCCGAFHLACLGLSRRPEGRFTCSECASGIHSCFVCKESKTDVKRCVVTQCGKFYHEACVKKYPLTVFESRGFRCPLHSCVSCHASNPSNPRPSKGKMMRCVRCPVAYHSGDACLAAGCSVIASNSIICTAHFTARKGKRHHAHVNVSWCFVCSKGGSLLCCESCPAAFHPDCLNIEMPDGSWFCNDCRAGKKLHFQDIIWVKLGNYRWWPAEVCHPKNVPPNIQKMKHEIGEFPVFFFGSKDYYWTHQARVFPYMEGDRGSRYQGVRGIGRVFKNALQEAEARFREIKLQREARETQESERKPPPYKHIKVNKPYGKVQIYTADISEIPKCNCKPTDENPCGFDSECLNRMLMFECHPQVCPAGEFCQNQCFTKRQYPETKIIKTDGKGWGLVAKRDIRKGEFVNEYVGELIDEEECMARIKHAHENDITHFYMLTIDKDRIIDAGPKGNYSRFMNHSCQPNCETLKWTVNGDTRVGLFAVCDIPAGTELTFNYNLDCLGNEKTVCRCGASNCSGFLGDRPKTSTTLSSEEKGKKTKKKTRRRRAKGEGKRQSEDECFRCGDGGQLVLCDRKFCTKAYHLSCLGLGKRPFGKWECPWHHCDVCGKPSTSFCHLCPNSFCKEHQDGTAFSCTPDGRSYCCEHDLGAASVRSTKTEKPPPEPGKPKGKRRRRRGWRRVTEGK
It counts as biochemical.

In assay [8] the target is T7, RNA-binding protein pos-1 (Caenorhabditis elegans, UniProt G5EF15).
T7 sequence (G5EF15 whole entry): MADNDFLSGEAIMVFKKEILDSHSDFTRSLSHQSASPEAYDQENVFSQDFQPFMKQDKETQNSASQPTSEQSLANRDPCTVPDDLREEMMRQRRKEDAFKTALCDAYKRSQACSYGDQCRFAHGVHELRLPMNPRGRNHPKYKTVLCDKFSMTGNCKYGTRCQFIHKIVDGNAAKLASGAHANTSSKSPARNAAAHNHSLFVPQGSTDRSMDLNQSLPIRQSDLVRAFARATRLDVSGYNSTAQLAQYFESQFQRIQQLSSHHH
The assay is described as follows: inhibitors of POS-1/mex-3 RNA binding, dose response, biochemical, fluorescence polarization (AID 1964).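 Also: purified POS-1 fused to maltose binding protein made in E. coli; potency of compounds blocking POS-1 binding to fluorescent RNA.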

The target of assay [9] is T8, Zinc finger protein mex-5 (Caenorhabditis elegans, UniProt Q9XUB2).
T8 sequence (Q9XUB2 whole entry): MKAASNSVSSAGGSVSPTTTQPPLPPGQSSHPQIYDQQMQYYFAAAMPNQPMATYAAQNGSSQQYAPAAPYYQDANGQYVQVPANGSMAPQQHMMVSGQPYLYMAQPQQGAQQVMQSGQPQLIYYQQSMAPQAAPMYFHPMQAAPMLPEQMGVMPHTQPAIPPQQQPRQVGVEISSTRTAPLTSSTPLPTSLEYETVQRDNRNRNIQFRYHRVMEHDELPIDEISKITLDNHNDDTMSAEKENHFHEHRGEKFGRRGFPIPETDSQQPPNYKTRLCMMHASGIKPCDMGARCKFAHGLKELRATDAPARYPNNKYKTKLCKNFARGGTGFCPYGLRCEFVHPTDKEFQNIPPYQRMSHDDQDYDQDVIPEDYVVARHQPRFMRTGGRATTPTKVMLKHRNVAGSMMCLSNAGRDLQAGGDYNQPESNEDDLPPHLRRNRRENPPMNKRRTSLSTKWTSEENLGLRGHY
As to the kind of experiment: MEX-5/TCR-2 RNA interaction inhibitors, dose response, biochemical, C. elegans, fluorescence polarization (AID 1960). On the technique in general: In fluorescence polarisation assays a small probe gives low polarisation when free and higher when bound to something large.

The next assay addresses ORF 73 (Human herpesvirus 8, UniProt O40947). The assay is described as follows: inhibitors of C-LANA binding to LBS DNA, dose response, biochemical, fluorescence polarization, cherry-picked samples (AID 504725).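 Also: fluorescence polarization of a labeled DNA duplex reporting LANA DNA binding; potency is for inhibitors that block LANA binding to the DNA.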 Further details: species or system Human gammaherpesvirus 8.
A further assay addresses T9, Leucine aminopeptidase (Plasmodium falciparum 3D7, UniProt Q8IL11).
T9 sequence (Q8IL11 whole entry): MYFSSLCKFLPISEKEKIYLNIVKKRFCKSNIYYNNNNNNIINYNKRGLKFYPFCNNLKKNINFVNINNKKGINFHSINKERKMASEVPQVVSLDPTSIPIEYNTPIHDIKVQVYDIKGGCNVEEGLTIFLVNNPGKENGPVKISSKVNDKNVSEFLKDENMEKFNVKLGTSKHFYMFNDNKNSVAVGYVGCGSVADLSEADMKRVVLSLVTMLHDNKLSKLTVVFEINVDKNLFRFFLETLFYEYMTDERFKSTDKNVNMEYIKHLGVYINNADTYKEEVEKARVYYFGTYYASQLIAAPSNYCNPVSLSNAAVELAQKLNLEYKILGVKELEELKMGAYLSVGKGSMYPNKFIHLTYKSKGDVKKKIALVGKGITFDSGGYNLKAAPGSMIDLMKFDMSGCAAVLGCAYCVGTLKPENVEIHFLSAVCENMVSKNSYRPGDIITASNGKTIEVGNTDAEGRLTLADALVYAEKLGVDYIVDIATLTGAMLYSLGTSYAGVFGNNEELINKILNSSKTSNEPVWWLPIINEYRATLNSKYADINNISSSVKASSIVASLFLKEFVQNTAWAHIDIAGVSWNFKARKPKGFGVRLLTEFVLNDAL
As to the kind of experiment: P. falciparum M17LAP inhibitors, primary screen, biochemical, fluorogenic H-Leu-NHMec substrate, 1536-well (AID 1619). It counts as functional.

Assay [10] deals with T5, Protein disulfide-isomerase. The assay is described as follows: PDI inhibitors, insulin turbidity readout, dose response, biochemical, absorbance, cherry-picked samples, set 2 (AID 624274). It counts as functional.

From ChEMBL document CHEMBL1201862, “PubChem BioAssay data set” (2004) come the findings set out here.

Structures are written as SMILES. Active and inactive are the calls of the source.

T5 sequence (P07237 whole entry): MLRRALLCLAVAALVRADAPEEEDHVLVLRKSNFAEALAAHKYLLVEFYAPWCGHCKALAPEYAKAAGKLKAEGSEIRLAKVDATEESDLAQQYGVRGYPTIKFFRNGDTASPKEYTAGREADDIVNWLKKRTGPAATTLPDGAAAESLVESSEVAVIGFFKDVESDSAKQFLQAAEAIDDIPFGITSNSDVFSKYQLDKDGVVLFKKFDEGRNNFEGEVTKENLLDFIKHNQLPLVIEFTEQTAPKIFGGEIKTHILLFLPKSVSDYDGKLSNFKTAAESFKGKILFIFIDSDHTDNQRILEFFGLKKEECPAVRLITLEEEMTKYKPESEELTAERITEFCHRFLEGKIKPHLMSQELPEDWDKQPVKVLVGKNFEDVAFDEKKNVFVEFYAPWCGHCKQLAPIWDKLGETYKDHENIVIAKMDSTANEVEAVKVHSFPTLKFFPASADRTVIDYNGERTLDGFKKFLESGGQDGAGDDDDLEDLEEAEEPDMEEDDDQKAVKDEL
Sequence of ORF 73 (O40947 whole entry): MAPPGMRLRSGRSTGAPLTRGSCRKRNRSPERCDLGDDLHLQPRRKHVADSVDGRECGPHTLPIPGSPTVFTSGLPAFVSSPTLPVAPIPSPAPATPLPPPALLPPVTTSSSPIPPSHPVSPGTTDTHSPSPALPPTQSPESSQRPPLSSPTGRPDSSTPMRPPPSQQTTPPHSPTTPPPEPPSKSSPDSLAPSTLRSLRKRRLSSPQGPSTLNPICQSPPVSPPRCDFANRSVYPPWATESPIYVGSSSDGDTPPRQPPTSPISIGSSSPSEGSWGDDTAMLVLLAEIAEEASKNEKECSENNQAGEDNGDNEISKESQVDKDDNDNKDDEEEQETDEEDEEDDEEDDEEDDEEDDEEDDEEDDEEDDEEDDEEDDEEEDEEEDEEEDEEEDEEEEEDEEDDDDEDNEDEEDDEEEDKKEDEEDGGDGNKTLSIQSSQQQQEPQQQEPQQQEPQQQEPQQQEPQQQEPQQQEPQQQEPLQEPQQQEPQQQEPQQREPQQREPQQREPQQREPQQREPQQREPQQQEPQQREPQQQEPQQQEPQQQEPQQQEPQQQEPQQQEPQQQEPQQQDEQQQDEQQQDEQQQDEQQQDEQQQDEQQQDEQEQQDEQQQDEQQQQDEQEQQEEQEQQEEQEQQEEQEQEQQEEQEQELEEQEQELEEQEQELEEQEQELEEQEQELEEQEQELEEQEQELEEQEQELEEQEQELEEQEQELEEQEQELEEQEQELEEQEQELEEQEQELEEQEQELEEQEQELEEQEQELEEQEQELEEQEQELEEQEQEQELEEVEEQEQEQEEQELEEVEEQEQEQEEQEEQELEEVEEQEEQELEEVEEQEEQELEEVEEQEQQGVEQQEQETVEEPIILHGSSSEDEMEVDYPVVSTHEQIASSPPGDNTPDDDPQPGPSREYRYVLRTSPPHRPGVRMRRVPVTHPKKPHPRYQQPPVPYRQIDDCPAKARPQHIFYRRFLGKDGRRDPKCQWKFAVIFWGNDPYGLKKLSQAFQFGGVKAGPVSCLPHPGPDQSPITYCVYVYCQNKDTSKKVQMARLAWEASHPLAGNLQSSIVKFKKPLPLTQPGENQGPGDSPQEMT
Sequence of Dual specificity protein phosphatase 3 (P51452 whole entry): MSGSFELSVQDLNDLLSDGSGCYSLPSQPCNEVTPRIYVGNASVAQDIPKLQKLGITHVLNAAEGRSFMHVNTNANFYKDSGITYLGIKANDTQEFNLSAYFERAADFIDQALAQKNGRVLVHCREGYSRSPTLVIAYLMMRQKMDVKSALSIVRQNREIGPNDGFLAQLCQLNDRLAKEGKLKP

As for `COc1ccc2cc3c(N)nn(C(=O)c4cccc(F)c4)c3nc2c1`, the IC50 is 4.31 µM (active) in assay [1]; 5.27 µM (active) in assay [2]; 8.49 µM (active) in assay [3]; 60.2 µM (inactive) in [4]; 16.9 µM (active) in assay [5].
By AC50 is commonly meant the midpoint of the concentration-response curve, whichever way the signal moves. By EC50 is commonly meant the concentration needed to bring the measured effect to its halfway point. For `O=C(O)CCCCCn1c(SCC(=O)c2ccc(O)c(O)c2)nc2ccsc2c1=O`, the AC50 in [6] was < 0.009 µM (active); in assay [7], 7.35 µM (active); at ORF 73 it was 2.89 µM (active); in [10], 0.009 µM (active). The EC50 in assay [8] was 270 µM (active); in assay [9] it was 61.6 µM (active). Moreover, the IC50 at Leucine aminopeptidase is 12.8 µM (active).
